Results on five molecules are retold here after paper PMC9229564 (Viruses, 2022).

Entries after “also recorded” stand apart in the source; their conditions may differ. Read-outs that look alike come from different tables or passages of the source.

For one data set, the target named is T1, human SK2 (Homo sapiens, UniProt Q9NRA0).
T1 sequence (Q9NRA0 1-654): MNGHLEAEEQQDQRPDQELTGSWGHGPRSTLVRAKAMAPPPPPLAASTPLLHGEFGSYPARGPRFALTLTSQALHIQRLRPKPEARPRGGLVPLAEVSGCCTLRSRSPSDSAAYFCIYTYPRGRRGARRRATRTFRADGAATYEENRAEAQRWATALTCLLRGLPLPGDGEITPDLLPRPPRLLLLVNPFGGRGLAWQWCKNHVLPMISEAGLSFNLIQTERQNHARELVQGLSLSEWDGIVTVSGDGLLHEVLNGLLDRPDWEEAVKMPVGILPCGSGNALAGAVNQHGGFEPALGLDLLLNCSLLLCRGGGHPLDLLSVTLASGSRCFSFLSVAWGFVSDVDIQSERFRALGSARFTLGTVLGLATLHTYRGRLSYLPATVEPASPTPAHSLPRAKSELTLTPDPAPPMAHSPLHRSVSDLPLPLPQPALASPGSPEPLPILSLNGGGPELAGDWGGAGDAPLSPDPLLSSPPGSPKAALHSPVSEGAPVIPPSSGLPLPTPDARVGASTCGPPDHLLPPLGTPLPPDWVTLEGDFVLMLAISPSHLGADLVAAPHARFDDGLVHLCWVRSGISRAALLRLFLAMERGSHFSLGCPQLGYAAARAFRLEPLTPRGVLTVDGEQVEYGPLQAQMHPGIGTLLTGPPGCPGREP
Kind of data set: SK2 inhibition (Ki). It counts as biochemical.

Data set [1] deals with CHIKV. Kind of data set: CHIKV infection of HeLa cells, immunofluorescence high-content imaging. The following applies: for inhibition of CHIKV infection (nsP3 expression), screen: 20 µM, cutoff at least 50% inhibition with at least 75% cell viability; for EC50: HeLa cells, CHIKV infection, increasing concentration of inhibitor. It counts as cell-based, Chikungunya virus (clone 181/25).

Another data set relates to HeLa cells. Kind of data set: virus-free cell viability assay. The data set is classed as cell-based.
Data set [2] concerns CHIKV. Kind of data set: qRT-PCR of viral nsP1 expression in CHIKV-infected HeLa cells. Particulars: 20 µM, 1 h pre-treatment, MOI 1, 24 h. The data set is classed as cell-based, Chikungunya virus (clone 181/25). On the technique in general: In qPCR the cycle at which signal appears reflects the starting amount.
Data set [3] has as its system CHIKV. Kind of data set: plaque assay of infectious virus release (supernatants on Vero E6 cells). The following applies: 25 µM, supernatant 24 h post-infection, plaques on Vero E6 over 72 h. It counts as cell-based, Chikungunya virus (clone 181/25).
For another data set, the target named is human SK1 (Homo sapiens, UniProt Q9NYA1). Kind of data set: SK1 inhibition (Ki). The data set is classed as biochemical.
In data set [4] the test system is CHIKV. The following applies: previous work; cited from earlier work.
Another data set deals with SK1 and SK2. On the set-up: method as in earlier work. Particulars: yeast assay; more potent at SK1 than SK2; cited from earlier work.
[5] abbreviates: 1 h pre-treatment, HeLa, MOI = 1, 24 h.

Chain of human SK1 (Q9NYA1 whole entry): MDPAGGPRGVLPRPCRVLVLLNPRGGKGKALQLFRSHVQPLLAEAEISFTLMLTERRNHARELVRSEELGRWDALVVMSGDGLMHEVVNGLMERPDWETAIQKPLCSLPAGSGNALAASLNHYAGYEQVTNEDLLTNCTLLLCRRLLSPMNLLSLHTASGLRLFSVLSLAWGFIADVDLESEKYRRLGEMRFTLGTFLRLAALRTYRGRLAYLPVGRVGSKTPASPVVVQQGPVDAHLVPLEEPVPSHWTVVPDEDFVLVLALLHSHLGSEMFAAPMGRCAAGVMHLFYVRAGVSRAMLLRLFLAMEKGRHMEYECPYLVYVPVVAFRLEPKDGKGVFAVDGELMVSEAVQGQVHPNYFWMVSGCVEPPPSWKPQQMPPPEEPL

Regarding `CCCCCCCCCCCCc1ccc(CN2CCCC2CO)cc1` (stereo not drawn) [SLL3071511], the inhibitory constant (Ki) (commonly the equilibrium dissociation constant of an inhibitor or competing ligand from its target) on human SK2 (read-out: SK2 Ki) came out at 0.66 ± 0.11 µM. The “inhibition of CHIKV infection (nsP3 expression), screen” value (“inhibition of CHIKV infection … screen” for short) with CHIKV [1] (setting [5]) was “significantly inhibited CHIKV infection”. Further, the “viral glycoprotein (E2) expression” value in the data set on CHIKV [1] (1 h pre-treatment, HeLa, MOI = 1, 24 h, Supplementary Figure S3) is “decreased”. Further, the EC50 (commonly the midpoint of the concentration-response curve) amounted to 2.9 µM in the data set on CHIKV [1] (Chikungunya virus, HeLa) and 2.91 µM in the data set with CHIKV [1]. The “anti-CHIKV activity at higher MOI” value with CHIKV [1] (HeLa, MOI = 10, 24 h) was “retained significant anti-CHIKV activity”. For the same molecule, in the data set on CHIKV [1] (treatment 1 h before, along with or 1 h after infection, MOI 1), the “timing of effective inhibition of CHIKV infection” value is “highest inhibitory effect occurring when the compound is used prior to infection; also recorded: maximal inhibition occurring when SLL3071511 is added prior to infection”. Moreover, in the data set on HeLa cells, the non-toxic concentration result is “up to 50 µM”. Besides, in the data set with CHIKV [2], the “viral nsP1 expression” value was “significantly diminished”. Besides, in the data set on CHIKV [3], the “plaque counts (infectious virus release)” value is given as “significantly diminished”.

Turning to `CCCCCCCCCCCCc1ccc(CN(C)C2CCCC2O)cc1` (stereo not drawn) [SLL3041783], the inhibition constant (Ki) on human SK1 (read-out: SK1 Ki) is 2.4 ± 0.61 µM; on human SK2 (read-out: SK2 Ki), more than 3 µM. In addition, in the data set with CHIKV [1] (setting [5]), the “inhibition of CHIKV infection … screen” value is “significantly inhibited CHIKV infection”. Further, a half-maximal effect in the data set with CHIKV [1] (Chikungunya virus, HeLa) (EC50) was put at 3.33 µM.

In the case of `O=C(NCc1ccncc1)C12CC3CC(C1)CC(c1ccc(Cl)cc1)(C3)C2` [ABC294640], the “timing of effective inhibition of CHIKV infection” value in the data set with CHIKV [4] is recorded as “most effective at inhibiting CHIKV infection”.

In the case of `N=C(N)N1CCC[C@H]1Cc1nc(-c2ccc(Oc3nc(Br)cs3)cc2)no1` [SLC4091425], the Ki on human SK1 (read-out: SK1 Ki) and at human SK2 (read-out: SK2 Ki) was more than 3 µM in each case. The “inhibition of CHIKV infection … screen” value in the data set on CHIKV [1] (setting [5]) was “significantly inhibited CHIKV infection”. For the same molecule, in the data set with CHIKV [1] (Chikungunya virus, HeLa), the EC50 came to 3.35 µM.

As for `CCCCCOc1ccc2cc(-c3noc([C@@H]4[C@@H](O)CCN4C(=N)N)n3)ccc2c1` [SLC5111312], the inhibition constant (Ki) is 0.36 ± 0.09 µM at human SK1 and 0.33 ± 0.07 µM on human SK2. Besides, in the data set with CHIKV [1] (setting [5]), the “inhibition of CHIKV infection … screen” value is listed as “significantly inhibited CHIKV infection”. Moreover, the EC50 in the data set on CHIKV [1] (Chikungunya virus, HeLa) was 11.8 µM. Further, the “potency at SK1 relative to SK2” value in the data set with SK1 and SK2 is 2 fold.
